# Assay results: paper PMC9276676, “Difluoromethylornithine (DFMO) and AMXT 1501 inhibit capsule biosynthesis in pneumococci” (Scientific Reports, 2022)
# Tests used:
# Format in all cases: cell-based, Streptococcus pneumoniae
# [1] = system: S. pneumoniae serotype 19F (EF3030); assay: DFMO susceptibility and growth in THY (OD600, MIC); parameters: Growthrate: unit not given here
# Description: (§1) S. pneumoniae serotypes 4 (TIGR4), 2 (D39), 19F (EF3030) and 3 (WU2) were cultured in Todd Hewitt broth supplemented with yeast extract (THY). Supplementation with DFMO ranging from 1.1 to 549 mM was carried out in triplicate in a 96-well plate and incubated at 37 °C and 5% CO2 in a Cytation™ 5 cell imaging multi-mode reader (BioTek, Winooski, VT). The change in optical density at 600 nm (OD600) was measured every hour for 24 h and used to determine the minimum inhibitory concentration (MIC) of DFMO. The optical density data was analyzed using GrowthRates 4.0 software. To determine whether DFMO at sub-MIC is bacteriostatic or lethal to pneumococcal cells, all strains were cultured in the presence or absence of 1/2 MIC DFMO. OD600 was measured every hour and CFU were enumerated on a blood agar plate (BAP) every 2 h over an 8 h incubation period.
# [2] = system: S. pneumoniae serotype 3 (WU2); assay: DFMO susceptibility and growth in THY (OD600, MIC); parameters: Growthrate: unit not given here
# Description: as §1
# S. pneumoniae TIGR4 = conditions: DFMO 137 mM (1/2 MIC), n = 5
# Description: This was done to directly compare possible changes in intracellular concentrations of polyamines and capsule precursors as a result of DFMO inhibition of polyamine synthesis to the earlier report where polyamine synthesis was affected via gene deletion in TIGR4[24]. […] Cells were harvested (5000×g, 10 min, 4 °C), re-suspended in extraction solvent [40% acetonitrile, 40% methanol, 20% water with formic acid (0.1 M)] and transferred to bead-beater tubes (MP Biomedicals, Irvine, CA, USA). Cells were lysed using a FastPrep-24™ Classic (45 s, 6.5 m/s, RT, 3 times) (MP Biomedicals, Irvine, CA, USA) and incubated on ice (5 min after each spin). TIGR4 lysates were clarified (6000×g, 5 min, 4 °C), and metabolite differentiation and detection were performed using published protocols[28],[29]. Liquid chromatography-mass spectrometry-based (LC–MS) metabolomic analysis was performed with an Agilent Accurate Mass 6230 TOF coupled with an Agilent 1290 LC system using a Cogent Diamond Hydride Type C column. Briefly, the mobile phase consisted of the following: solvent A (ddH2O with 0.2% formic acid) and solvent B (acetonitrile with 0.2% formic acid). The gradient used was as follows: 0–2 min, 85% B; 3–5 min, 80% B; 6–7 min, 75% B; 8–9 min, 70% B; 10–11.1 min, 50% B; 11.1–14 min 20% B; 14.1–24 min 5% B followed by a 10 min re-equilibration period at 85% B at a flow rate of 0.4 mL/min. Mass axis dynamics was calibrated by continuous infusion of a reference mass solution using an isocratic pump. […] Metabolite identities were searched for using a mass tolerance of < 0.005 Da. Metabolite concentrations from the 5 biological replicates were normalized to biomass based on measurement of residual peptide content in individual samples using the Pierce BCA Protein Assay kit (Thermo Fisher Scientific, Waltham, MA, USA). Data were analyzed using Profinder B.07.00 software (Agilent Technologies, Santa Clara, CA, USA). Extracted molecular features detected in the mass analyzer were identified using accurate mass values and used to generate empirical molecular formulae using an in-house metabolite database that included known intermediates, amino acid precursors and polyamines and their derivatives. Statistical analysis of metabolite peak intensity data was performed using MetaboAnalyst 4.0[30]. Data were normalized (quantile), log transformed and significant fold change between WT and DFMO-treated WT were identified by Student’s t-test (p ≤ 0.05).
smiles,measurement,setting,value
"NCCC[C@](N)(C(=O)O)C(F)F [DFMO, α-difluoromethylornithine]",difference in growth rate in presence or absence of DFMO (GrowthRates software),[1],did not identify any significant differences
same,Growthrate,[1]; DFMO 0.2 µg/µL,0.035
same,Max OD,[1]; DFMO 0.2 µg/µL,1.413
same,Growthrate,[1]; DFMO 0.4 µg/µL,0.021
same,Max OD,[1]; DFMO 0.4 µg/µL,1.458
same,Growthrate,[1]; DFMO 0.8 µg/µL,0.037
same,Max OD,[1]; DFMO 0.8 µg/µL,1.485
same,Growthrate,[1]; DFMO 1.6 µg/µL,0.037
same,Max OD,[1]; DFMO 1.6 µg/µL,1.495
same,Growthrate,[1]; DFMO 3.1 µg/µL,0.036
same,Max OD,[1]; DFMO 3.1 µg/µL,1.517
same,Growthrate,[1]; DFMO 6.3 µg/µL,0.035
same,Max OD,[1]; DFMO 6.3 µg/µL,1.538
same,Growthrate,[1]; DFMO 12.5 µg/µL,0.030
same,Max OD,[1]; DFMO 12.5 µg/µL,1.513
same,Growthrate,[1]; DFMO 25.0 µg/µL,0.040
same,Max OD,[1]; DFMO 25.0 µg/µL,1.319
same,Growthrate,[1]; DFMO 50.0 µg/µL,0.000
same,Max OD,[1]; DFMO 50.0 µg/µL,0.000
same,Growthrate,[1]; DFMO 100.0 µg/µL,0.000
same,Max OD,[1]; DFMO 100.0 µg/µL,0.000
same,difference in growth rate in presence or absence of DFMO (GrowthRates software),[2],did not identify any significant differences
same,growth curve versus control,[2]; 1/2 MIC DFMO (137 mM),longer lag phase and a lower maximal O.D
same,Growthrate,[2]; DFMO 0.2 µg/µL,0.046
same,Max OD,[2]; DFMO 0.2 µg/µL,0.497
same,Growthrate,[2]; DFMO 0.4 µg/µL,0.047
same,Max OD,[2]; DFMO 0.4 µg/µL,0.509
same,Growthrate,[2]; DFMO 0.8 µg/µL,0.047
same,Max OD,[2]; DFMO 0.8 µg/µL,0.548
same,Growthrate,[2]; DFMO 1.6 µg/µL,0.046
same,Max OD,[2]; DFMO 1.6 µg/µL,0.575
same,Growthrate,[2]; DFMO 3.1 µg/µL,0.050
same,Max OD,[2]; DFMO 3.1 µg/µL,0.650
same,Growthrate,[2]; DFMO 6.3 µg/µL,0.048
same,Max OD,[2]; DFMO 6.3 µg/µL,0.652
same,Growthrate,[2]; DFMO 12.5 µg/µL,0.048
same,Max OD,[2]; DFMO 12.5 µg/µL,0.696
same,Growthrate,[2]; DFMO 25.0 µg/µL,0.046
same,Max OD,[2]; DFMO 25.0 µg/µL,0.303
same,Growthrate,[2]; DFMO 50.0 µg/µL,0.000
same,Growthrate,[2]; DFMO 100.0 µg/µL,0.000
same,"5,10-methylenetetrahydrofolate, fold change TIGR4+DFMO /TIGR4",S. pneumoniae TIGR4,4.4
same,"5-phospho-α-D-ribose 1-diphosphate (PRPP), fold change TIGR4+DFMO /TIGR4",S. pneumoniae TIGR4,3.8
same,"6-Phosphogluconate, fold change TIGR4+DFMO /TIGR4",S. pneumoniae TIGR4,7.8
same,"Agmatine, fold change TIGR4+DFMO /TIGR4",S. pneumoniae TIGR4,-2.0
same,"Arginine, fold change TIGR4+DFMO /TIGR4",S. pneumoniae TIGR4,1.1
same,"Cadaverine, fold change TIGR4+DFMO /TIGR4",S. pneumoniae TIGR4,-1.5
same,"Fructose 6-phosphate, fold change TIGR4+DFMO /TIGR4",S. pneumoniae TIGR4,-16.8
same,"Fucose, fold change TIGR4+DFMO /TIGR4",S. pneumoniae TIGR4,-1.3
same,"GSH, fold change TIGR4+DFMO /TIGR4",S. pneumoniae TIGR4,-23.2
same,"GSSG, fold change TIGR4+DFMO /TIGR4",S. pneumoniae TIGR4,-41.3
same,"Galactose 1-phosphate, fold change TIGR4+DFMO /TIGR4",S. pneumoniae TIGR4,-16.8
same,"Glucosamine 6-phosphate, fold change TIGR4+DFMO /TIGR4",S. pneumoniae TIGR4,-21.0
same,"Glucose 6-phosphate, fold change TIGR4+DFMO /TIGR4",S. pneumoniae TIGR4,10.6
same,"Glyceraldehyde 3-phosphate, fold change TIGR4+DFMO /TIGR4",S. pneumoniae TIGR4,-308.6
same,"Lysine, fold change TIGR4+DFMO /TIGR4",S. pneumoniae TIGR4,-1.7
same,"Methionine, fold change TIGR4+DFMO /TIGR4",S. pneumoniae TIGR4,-1.8
same,"N-Acetylspermidine, fold change TIGR4+DFMO /TIGR4",S. pneumoniae TIGR4,-1.6
same,"NADH, fold change TIGR4+DFMO /TIGR4",S. pneumoniae TIGR4,-358.8
same,"NADPH, fold change TIGR4+DFMO /TIGR4",S. pneumoniae TIGR4,25.1
same,"Ornithine, fold change TIGR4+DFMO /TIGR4",S. pneumoniae TIGR4,-1.3
same,"Putrescine, fold change TIGR4+DFMO /TIGR4",S. pneumoniae TIGR4,-1.9
same,"Pyruvate, fold change TIGR4+DFMO /TIGR4",S. pneumoniae TIGR4,-1.74
same,"S-adenosylmethionine, fold change TIGR4+DFMO /TIGR4",S. pneumoniae TIGR4,64.2
same,"Sedoheptulose 7-phosphate, fold change TIGR4+DFMO /TIGR4",S. pneumoniae TIGR4,-13.5
same,"Spermidine, fold change TIGR4+DFMO /TIGR4",S. pneumoniae TIGR4,-3.1
same,"Spermine, fold change TIGR4+DFMO /TIGR4",S. pneumoniae TIGR4,26.6
same,"Tetrahydrofolate, fold change TIGR4+DFMO /TIGR4",S. pneumoniae TIGR4,-1.4
same,"UDP, fold change TIGR4+DFMO /TIGR4",S. pneumoniae TIGR4,-53.1
same,"UDP-Galactose, fold change TIGR4+DFMO /TIGR4",S. pneumoniae TIGR4,-66.5
same,"UDP-Glucose, fold change TIGR4+DFMO /TIGR4",S. pneumoniae TIGR4,-66.5
same,"UDP-N-acetylfucosamine, fold change TIGR4+DFMO /TIGR4",S. pneumoniae TIGR4,2.3
same,"UDP-N-acetylgalactosamine, fold change TIGR4+DFMO /TIGR4",S. pneumoniae TIGR4,-18.9
same,"UDP-N-acetylglucosamine, fold change TIGR4+DFMO /TIGR4",S. pneumoniae TIGR4,-18.9
same,"UDP-N-acetylmannosamine, fold change TIGR4+DFMO /TIGR4",S. pneumoniae TIGR4,-18.9
same,"UDP-N-acetylmuramic acid, fold change TIGR4+DFMO /TIGR4",S. pneumoniae TIGR4,-259.2
same,"UMP, fold change TIGR4+DFMO /TIGR4",S. pneumoniae TIGR4,-2.1
